Experiments:
HEK293T cells [1] = assay: p21 immunoblotting in HEK293T cells; conditions: 6 h drug exposure
PLK1 = assay: Phospho-TCTP; conditions: MM1.S cells; 30 – 100 nM drug concentration; 6 h drug exposure; immunoblotting
HEK293T cells [2] = assay: Cell growth inhibition, CellTiter Blue; format: cell-based; conditions: 72 h drug exposure, single experiment in hexaplicate (± SEM)
MM1.S cells = assay: Cell growth inhibition, CellTiter Blue; format: cell-based; conditions: 72 h drug exposure, single experiment in hexaplicate (± SEM)

SMILES: CCOc1cc(C(=O)N2CCC(N3CCN(C)CC3)CC2)ccc1Nc1ncc2c(n1)N(C1CCCC1)c1ccccc1C(=O)N2C [ERK5-IN-1]
- p21Cip1 levels (HEK293T cells [1]): lacked the potential to increase

SMILES: CC[C@@H]1C(=O)N(C)c2cnc(Nc3ccc(C(=O)N[C@H]4CC[C@H](N5CCN(CC6CC6)CC5)CC4)cc3OC)nc2N1C(C)C [Volasertib]
- levels of phosphorylated TCTP (S46) (PLK1): significantly reduced
- p21Cip1 levels (HEK293T cells [1]): increased significantly

SMILES: CCOc1cc(N2CCC(O)CC2)ccc1Nc1ncc2c(n1)N(C)c1ccccc1C(=O)N2C [XMD8-92]
- p21Cip1 levels (HEK293T cells [1]): lacked the potential to increase

SMILES: CC[C@@H]1C(=O)N(C)c2cnc(Nc3ccc(C(=O)NC4CCN(C)CC4)cc3OC)nc2N1C1CCCC1 [BI2536]
- p21Cip1 levels (HEK293T cells [1]): increased significantly

SMILES: C[C@@H](Oc1cc(-n2cnc3ccc(CN4CCN(C)CC4)cc32)sc1C(N)=O)c1ccccc1C(F)(F)F [GSK461364]
- Cell growth inhibitory potential IC50 (HEK293T cells [2]): low nanomolar
- Cell growth inhibitory potential IC50 (MM1.S cells): low nanomolar
- levels of phosphorylated TCTP (S46) (PLK1): significantly reduced

SMILES: COc1cc(C(=O)N2CCC(N3CCN(C)CC3)CC2)ccc1Nc1ncc2c(n1)N(C)c1ccccc1C(=O)N2C [LRRK2-IN-1]
- p21Cip1 levels (HEK293T cells [1]): increased significantly
